{"source": "patent US8673910B2", "about": "“Proteasome inhibitors for selectively inducing apoptosis in cancer cells” (H. Lee Moffitt Cancer Center and Research Institute, priority 2008, dated 2014)", "key": {"[1]": {"system": "p27^Kip1 levels in A549 lung cancer cells", "assay": "Western blot of p27Kip1 in cultured A549 cells", "format": "cell-based, human", "details": "48 h treatment", "method": "(§1) Cell lysates (50 μg) were separated by SDS-PAGE and transferred to a nitrocellulose membrane, probed with p27^Kip1 and β-actin antibodies, and signals were visualized by enhanced chemoluminescence (ECL, Amersham, Piscataway, N.J.) according to the manufacturer's protocol."}, "[2]": {"system": "CT-L activity of rabbit 20S proteasome", "assay": "Dialysis using purified rabbit 20S proteasome", "format": "biochemical", "details": "compound 10 μM, 30 min pre-incubation at 37° C.", "method": "To measure the effect of dialysis on CT-L activity, compounds (10 μM) or vehicle (0.1% DMSO) were added to rabbit 20S proteasome (225 ng) (Boston Biochem) in proteasome assay buffer (50 mM Tris-HCl, pH 7.6) and incubated at 37° C. for 30 min. After 30 min of incubation, proteasome-compound mixtures were added to 10,000 MWCO Thermo Scientific Slide-A-Lyzer Dialysis Cassette (Rockford, Ill.) and dialyzed against proteasome assay buffer. Immediately (t=0) and 0.5 h, 1 h, 2 h, 4 h, and 18 h of dialysis at 4° C., samples were removed from the dialysis cassette and the CT-L 20S proteasome activity was determined. Proteasome activity was normalized against proteasome activity of DMSO control."}, "[3]": {"system": "p27^Kip1 protein in A549 tumors", "assay": "Western blot of p27Kip1 in A549 tumor lysates", "format": "in vivo", "details": "A549-bearing nude mice", "method": "as §1"}}, "data": [{"smiles": "CC(C)C[C@H](NC(=O)[C@H](Cc1ccccc1)NC(=O)c1cnccn1)B(O)O", "note": "[Bortezomib, reference compound]", "values": [{"measurement": "p27^Kip1 levels in cultured A549 lung cancer cells", "setting": "[1]", "result": "marked increase"}, {"measurement": "inhibition of CT-L activity of the 20S proteasome in the absence of dialysis", "setting": "[2]", "result": 99, "unit": "%"}, {"measurement": "treated tumors with dramatic upregulation of p27^Kip1 protein", "setting": "[3]", "result": "4 out of 4"}]}]}
